Reference: the OligoGym collection
Oligonucleotides are written 5' to 3', each unit as a sugar letter and its base; * is a phosphorothioate linkage, no mark a phosphodiester; rarer units and linkages stand in square brackets, end groups in braces. Plain capitals give the bases only. d = 2'-deoxy (DNA); r = 2'-OH (RNA)

biological target: UBE2L6; assay: reporter assay of Huesken 2005; details: siRNA
Further: test concentration or dose not given here.

Which normalised inhibition (eCFP-eYFP dual reporter) does the source give for “sense rUrGrCrCrGrArArGrArGrUrUrCrArCrCrCrUrCdTdT / antisense rGrArGrGrGrUrGrArArCrUrCrUrUrCrGrGrCrAdTdT” here?
The normalised inhibition (eCFP-eYFP dual reporter) was 59.9%.

With “sense rCrArCrArArCrCrArArGrArUrCrUrArCrCrArCdTdT / antisense rGrUrGrGrUrArGrArUrCrUrUrGrGrUrUrGrUrGdAdA” as the substance, how does the normalised inhibition (eCFP-eYFP dual reporter) read?
The normalised inhibition (eCFP-eYFP dual reporter) was 45.8%.

For “sense rArArCrCrArArGrArUrCrUrArCrCrArCrCrCrCdTdT / antisense rGrGrGrGrUrGrGrUrArGrArUrCrUrUrGrGrUrUdGdT”, which normalised inhibition (eCFP-eYFP dual reporter) is on record?
Its normalised inhibition (eCFP-eYFP dual reporter) is 43.6%.

With “sense rArGrCrGrArUrGrArUrGrCrCrArArUrGrUrCrCdTdT / antisense rGrGrArCrArUrUrGrGrCrArUrCrArUrCrGrCrUdGdG” as the substance, how does the normalised inhibition (eCFP-eYFP dual reporter) read?
The normalised inhibition (eCFP-eYFP dual reporter) was 87.3%.

With “sense rCrCrArUrArCrCrUrGrCrGrGrArArCrCrUrGrUdTdT / antisense rArCrArGrGrUrUrCrCrGrCrArGrGrUrArUrGrGdGdG” as the substance, how does the normalised inhibition (eCFP-eYFP dual reporter) read?
Its normalised inhibition (eCFP-eYFP dual reporter) is 88.3%.

Which normalised inhibition (eCFP-eYFP dual reporter) does the source give for “sense rCrCrUrGrCrGrGrArUrGrGrArCrCrUrCrGrCrUdTdT / antisense rArGrCrGrArGrGrUrCrCrArUrCrCrGrCrArGrGdGdG” here?
Its normalised inhibition (eCFP-eYFP dual reporter) is 81.8%.

With “sense rCrGrCrUrCrUrCrCrUrCrCrUrArCrCrCrGrArCdTdT / antisense rGrUrCrGrGrGrUrArGrGrArGrGrArGrArGrCrGdTdG” as the substance, how does the normalised inhibition (eCFP-eYFP dual reporter) read?
Its normalised inhibition (eCFP-eYFP dual reporter) is 73.7%.

For “sense rArCrCrUrGrCrGrGrArArCrCrUrGrUrCrCrArGdTdT / antisense rCrUrGrGrArCrArGrGrUrUrCrCrGrCrArGrGrUdAdT”, which normalised inhibition (eCFP-eYFP dual reporter) is on record?
Its normalised inhibition (eCFP-eYFP dual reporter) is 73.8%.

For “sense rCrCrGrArArGrArGrUrUrCrArCrCrCrUrCrCrGdTdT / antisense rCrGrGrArGrGrGrUrGrArArCrUrCrUrUrCrGrGdCdA”, which normalised inhibition (eCFP-eYFP dual reporter) is on record?
The normalised inhibition (eCFP-eYFP dual reporter) was 62.6%.

Which normalised inhibition (eCFP-eYFP dual reporter) does the source give for “sense rGrCrGrArUrGrArUrGrCrCrArArUrGrUrCrCrUdTdT / antisense rArGrGrArCrArUrUrGrGrCrArUrCrArUrCrGrCdTdG” here?
Its normalised inhibition (eCFP-eYFP dual reporter) is 107%.

With “sense rUrCrUrCrCrUrCrCrUrArCrCrCrGrArCrCrArAdTdT / antisense rUrUrGrGrUrCrGrGrGrUrArGrGrArGrGrArGrAdGdC” as the substance, how does the normalised inhibition (eCFP-eYFP dual reporter) read?
Its normalised inhibition (eCFP-eYFP dual reporter) is 79.9%.

With “sense rCrCrGrArArUrArUrCrArGrGrGrArGrCrCrCrCdTdT / antisense rGrGrGrGrCrUrCrCrCrUrGrArUrArUrUrCrGrGdTdC” as the substance, how does the normalised inhibition (eCFP-eYFP dual reporter) read?
The normalised inhibition (eCFP-eYFP dual reporter) was 50%.

For “sense rArCrCrUrCrGrCrUrGrArCrCrUrGrCrUrGrArCdTdT / antisense rGrUrCrArGrCrArGrGrUrCrArGrCrGrArGrGrUdCdC”, which normalised inhibition (eCFP-eYFP dual reporter) is on record?
The normalised inhibition (eCFP-eYFP dual reporter) was 58.6%.

Which normalised inhibition (eCFP-eYFP dual reporter) does the source give for “sense rUrArCrCrArCrCrCrCrArArCrGrUrGrGrArCrGdTdT / antisense rCrGrUrCrCrArCrGrUrUrGrGrGrGrUrGrGrUrAdGdA” here?
The normalised inhibition (eCFP-eYFP dual reporter) was 37.4%.

With “sense rUrCrUrArCrCrArCrCrCrCrArArCrGrUrGrGrAdTdT / antisense rUrCrCrArCrGrUrUrGrGrGrGrUrGrGrUrArGrAdTdC” as the substance, how does the normalised inhibition (eCFP-eYFP dual reporter) read?
The normalised inhibition (eCFP-eYFP dual reporter) was 53%.

With “sense rCrCrCrArUrGrArUrCrArArArUrUrCrArCrArAdTdT / antisense rUrUrGrUrGrArArUrUrUrGrArUrCrArUrGrGrGdAdG” as the substance, how does the normalised inhibition (eCFP-eYFP dual reporter) read?
Its normalised inhibition (eCFP-eYFP dual reporter) is 95.2%.

Which normalised inhibition (eCFP-eYFP dual reporter) does the source give for “sense rArCrCrUrGrCrGrCrArUrCrArGrCrUrUrCrCrCdTdT / antisense rGrGrGrArArGrCrUrGrArUrGrCrGrCrArGrGrUdTdG” here?
Its normalised inhibition (eCFP-eYFP dual reporter) is 70.9%.

With “sense rArCrCrArCrCrCrCrArArCrGrUrGrGrArCrGrAdTdT / antisense rUrCrGrUrCrCrArCrGrUrUrGrGrGrGrUrGrGrUdAdG” as the substance, how does the normalised inhibition (eCFP-eYFP dual reporter) read?
Its normalised inhibition (eCFP-eYFP dual reporter) is 64.9%.

Which normalised inhibition (eCFP-eYFP dual reporter) does the source give for “sense rArGrGrGrArGrCrCrCrCrUrGrCrGrGrArUrGrGdTdT / antisense rCrCrArUrCrCrGrCrArGrGrGrGrCrUrCrCrCrUdGdA” here?
The normalised inhibition (eCFP-eYFP dual reporter) was 60.1%.

For “sense rUrGrGrArArGrCrCrUrUrGrCrArCrCrArArGrAdTdT / antisense rUrCrUrUrGrGrUrGrCrArArGrGrCrUrUrCrCrAdGdT”, which normalised inhibition (eCFP-eYFP dual reporter) is on record?
The normalised inhibition (eCFP-eYFP dual reporter) was 77.7%.

For “sense rCrUrCrCrUrArCrCrCrGrArCrCrArArCrCrUrCdTdT / antisense rGrArGrGrUrUrGrGrUrCrGrGrGrUrArGrGrArGdGdA”, which normalised inhibition (eCFP-eYFP dual reporter) is on record?
The normalised inhibition (eCFP-eYFP dual reporter) was 63.5%.

With “sense rArArArGrCrCrUrUrCrArArCrCrUrGrCrGrCrAdTdT / antisense rUrGrCrGrCrArGrGrUrUrGrArArGrGrCrUrUrUdCdA” as the substance, how does the normalised inhibition (eCFP-eYFP dual reporter) read?
The normalised inhibition (eCFP-eYFP dual reporter) was 69.8%.

Which normalised inhibition (eCFP-eYFP dual reporter) does the source give for “sense rGrUrCrCrUrGrGrUrGrUrGrGrCrArCrGrCrUrCdTdT / antisense rGrArGrCrGrUrGrCrCrArCrArCrCrArGrGrArCdAdT” here?
Its normalised inhibition (eCFP-eYFP dual reporter) is 74.2%.

Which normalised inhibition (eCFP-eYFP dual reporter) does the source give for “sense rCrArCrArGrArArUrCrCrGrGrArGrCrUrGrUrUdTdT / antisense rArArCrArGrCrUrCrCrGrGrArUrUrCrUrGrUrGdTdC” here?
Its normalised inhibition (eCFP-eYFP dual reporter) is 97.8%.

biological target: not listed separately; assay: reporter assay of Huesken 2005; details: siRNA

With “sense rArCrUrGrArUrGrUrUrCrCrUrUrGrUrGrGrArCdTdT / antisense rGrUrCrCrArCrArArGrGrArArCrArUrCrArGrUdGdA” as the substance, how does the normalised inhibition (eCFP-eYFP dual reporter) read?
The normalised inhibition (eCFP-eYFP dual reporter) was 55.2%.

For “sense rArCrUrUrArArCrUrUrCrUrGrArGrCrArArUrAdTdT / antisense rUrArUrUrGrCrUrCrArGrArArGrUrUrArArGrUdAdA”, which normalised inhibition (eCFP-eYFP dual reporter) is on record?
Its normalised inhibition (eCFP-eYFP dual reporter) is 90.7%.

Which normalised inhibition (eCFP-eYFP dual reporter) does the source give for “sense rUrGrCrCrCrArUrUrGrUrGrUrUrCrCrCrUrUrGdTdT / antisense rCrArArGrGrGrArArCrArCrArArUrGrGrGrCrAdGdG” here?
Its normalised inhibition (eCFP-eYFP dual reporter) is 95.4%.

For “sense rUrGrUrGrGrArCrUrCrUrGrArGrArArGrArArAdTdT / antisense rUrUrUrCrUrUrCrUrCrArGrArGrUrCrCrArCrAdAdG”, which normalised inhibition (eCFP-eYFP dual reporter) is on record?
The normalised inhibition (eCFP-eYFP dual reporter) was 85.5%.

With “sense rGrCrCrCrUrCrCrUrGrUrGrArCrCrUrCrCrArUdTdT / antisense rArUrGrGrArGrGrUrCrArCrArGrGrArGrGrGrCdAdC” as the substance, how does the normalised inhibition (eCFP-eYFP dual reporter) read?
Its normalised inhibition (eCFP-eYFP dual reporter) is 89%.

For “sense rCrUrCrUrCrUrGrCrCrArCrArUrGrGrUrGrUrGdTdT / antisense rCrArCrArCrCrArUrGrUrGrGrCrArGrArGrArGdAdC”, which normalised inhibition (eCFP-eYFP dual reporter) is on record?
Its normalised inhibition (eCFP-eYFP dual reporter) is 46.7%.

With “sense rArGrGrUrCrArCrCrArGrArGrUrGrGrArArArCdTdT / antisense rGrUrUrUrCrCrArCrUrCrUrGrGrUrGrArCrCrUdTdT” as the substance, how does the normalised inhibition (eCFP-eYFP dual reporter) read?
Its normalised inhibition (eCFP-eYFP dual reporter) is 94.3%.

Which normalised inhibition (eCFP-eYFP dual reporter) does the source give for “sense rGrCrCrUrArCrGrGrGrArGrUrCrArArArGrGrUdTdT / antisense rArCrCrUrUrUrGrArCrUrCrCrCrGrUrArGrGrCdGdT” here?
The normalised inhibition (eCFP-eYFP dual reporter) was 91.5%.

For “sense rArGrUrGrArUrCrCrCrGrGrGrGrCrUrGrArGrAdTdT / antisense rUrCrUrCrArGrCrCrCrCrGrGrGrArUrCrArCrUdGdG”, which normalised inhibition (eCFP-eYFP dual reporter) is on record?
Its normalised inhibition (eCFP-eYFP dual reporter) is 94.9%.

For “sense rGrCrArArCrArGrGrGrUrArUrGrCrArCrArCrCdTdT / antisense rGrGrUrGrUrGrCrArUrArCrCrCrUrGrUrUrGrCdTdC”, which normalised inhibition (eCFP-eYFP dual reporter) is on record?
Its normalised inhibition (eCFP-eYFP dual reporter) is 72.5%.

For “sense rUrGrGrCrUrCrUrGrUrCrUrCrUrCrUrGrCrCrAdTdT / antisense rUrGrGrCrArGrArGrArGrArCrArGrArGrCrCrAdCdC”, which normalised inhibition (eCFP-eYFP dual reporter) is on record?
The normalised inhibition (eCFP-eYFP dual reporter) was 76.5%.

Which normalised inhibition (eCFP-eYFP dual reporter) does the source give for “sense rArUrUrGrUrUrCrCrUrGrUrGrArArCrUrGrUrGdTdT / antisense rCrArCrArGrUrUrCrArCrArGrGrArArCrArArUdGdA” here?
The normalised inhibition (eCFP-eYFP dual reporter) was 76.9%.

With “sense rCrCrUrGrUrCrArGrGrGrGrUrCrGrGrArGrUrGdTdT / antisense rCrArCrUrCrCrGrArCrCrCrCrUrGrArCrArGrGdCdA” as the substance, how does the normalised inhibition (eCFP-eYFP dual reporter) read?
Its normalised inhibition (eCFP-eYFP dual reporter) is 72.5%.
